# Patent US6143739A, “Basic proline-amide derivatives of GE 2270 and GE 2270-like antibiotics” (Biosearch Italia S.p.A., priority 1995, dated 2000)
# Assays:
# Test in all cases: MIC by microbroth dilution
# [1] = test system: Streptococcus pyogenes L49; assay type: cell-based; conditions: 0.01% (w/v) BSA, 10^4 CFU/ml, read after 18-24 h, 37° C., Todd Hewitt broth
# Procedure: (§1) The minimal inhibitory concentration (MIC) has been determined by microbroth dilution methodology, in the presence of 0.01% (w/v) of bovine serum albumin (BSA). BSA is added to the diluent to avoid possible adherence of the compounds of the invention to the plastic surface of the microtiter wells, as disclosed also by B. Goldstein et al., Antimicrobial Agents and Chemotherapy, 37 (1993), 741-745.
# (§2) Inocula were 10^4 CFU/ml, except for Propionibacterium acnes and Bacteroides fragilis (10^5 CFU/ml).
# (§3) MICs were read after 18-24 h, except for Haemophilus influenzae, P. acnes, B. fragilis (48 h).
# (§4) All microorganisms were incubated at 37° C.; H. influenzae in a 5% CO2 atmosphere, anaerobes in a N2 --CO2 --H2 (80:10:10) mixture; other organisms in air.
# (§5) The growth media are: Oxoid Iso-Sensitest broth for staphylococci and Enterococcus faecalis); Difco Todd Hewitt broth for streptococci; Difco brain heart infusion broth+1% Difco Supplement C for H. influenzae; Difco Wilkins-Chalgren broth for anaerobes.
# Strept. agalactiae L310 = assay type: cell-based; conditions: 0.01% (w/v) BSA, 10^4 CFU/ml, read after 18-24 h, 37° C., Todd Hewitt broth
# Procedure: as §1, §2, §3, §4, §5
# [2] = test system: Staphylococcus aureus L165; assay type: cell-based; conditions: 0.01% (w/v) BSA, 10^4 CFU/ml, read after 18-24 h, 37° C., Iso-Sensitest broth
# Procedure: as §1, §2, §3, §4, §5
# Strept. sanguis L1721 = assay type: cell-based; conditions: 0.01% (w/v) BSA, 10^4 CFU/ml, read after 18-24 h, 37° C., Todd Hewitt broth
# Procedure: as §1, §2, §3, §4, §5
# Strept. pneumoniae L44 = assay type: cell-based; conditions: 0.01% (w/v) BSA, 10^4 CFU/ml, read after 18-24 h, 37° C., Todd Hewitt broth
# Procedure: BSA is added to the diluent to avoid possible adherence of the compounds of the invention to the plastic surface of the microtiter wells, as disclosed also by B. Goldstein et al., Antimicrobial Agents and Chemotherapy, 37 (1993), 741-745. Inocula were 10^4 CFU/ml, except for Propionibacterium acnes and Bacteroides fragilis (10^5 CFU/ml). MICs were read after 18-24 h, except for Haemophilus influenzae, P. acnes, B. fragilis (48 h). All microorganisms were incubated at 37° C.; H. influenzae in a 5% CO2 atmosphere, anaerobes in a N2 --CO2 --H2 (80:10:10) mixture; other organisms in air. The growth media are: Oxoid Iso-Sensitest broth for staphylococci and Enterococcus faecalis); Difco Todd Hewitt broth for streptococci; Difco brain heart infusion broth+1% Difco Supplement C for H. influenzae; Difco Wilkins-Chalgren broth for anaerobes.
# [3] = test system: Haemoph. influenzae ATCC 19418 L970; assay type: cell-based, Haemophilus influenzae; conditions: 0.01% (w/v) BSA, 10^4 CFU/ml, read after 48 h, 37° C., 5% CO2, brain heart infusion broth+1% Supplement C
# Procedure: as §1, §2, §3, §4, §5
SMILES,"MIC of the compounds, Streptococcus pyogenes L49 [1] [µg/mL]","MIC of the compounds, Strept. agalactiae L310 (Strept. agalactiae L310) [µg/mL]","MIC of the compounds, Staphylococcus aureus L165 [2] [µg/mL]","MIC of the compounds, Strept. sanguis L1721 (Strept. sanguis L1721) [µg/mL]","MIC of the compounds, Strept. pneumoniae L44 (Strept. pneumoniae L44) [µg/mL]","MIC of the compounds, Haemoph. influenzae ATCC 19418 L970 [3] [µg/mL]"
CNC(=O)CC1NC(=O)c2csc(n2)-c2ccc(-c3nc(C4=NC(C(=O)N5CCCC5C(=O)NCCN(C)C)CO4)cs3)nc2-c2csc(n2)-c2csc(n2)C(C(O)c2ccccc2)NC(=O)CNC(=O)c2nc(sc2COC)C(C(C)C)NC(=O)c2nc1sc2C (mixture of isomers) [Compound 7],1,4,0.06,0.5,0.13,
CCN(CCN(C)C)C(=O)C1CCCN1C(=O)C1COC(c2csc(-c3ccc4c(n3)-c3csc(n3)-c3csc(n3)C(C(O)c3ccccc3)NC(=O)CNC(=O)c3nc(sc3COC)C(C(C)C)NC(=O)c3nc(sc3C)C(CC(=O)NC)NC(=O)c3csc-4n3)n2)=N1 (mixture of isomers) [Compound 8],4,8,0.06,0.5,0.25,
CCN(CC)CCN(CC)C(=O)C1CCCN1C(=O)C1COC(c2csc(-c3ccc4c(n3)-c3csc(n3)-c3csc(n3)C(C(O)c3ccccc3)NC(=O)CNC(=O)c3nc(sc3COC)C(C(C)C)NC(=O)c3nc(sc3C)C(CC(=O)NC)NC(=O)c3csc-4n3)n2)=N1 (mixture of isomers) [Compound 9],8,8,0.06,2,0.5,
CNC(=O)CC1NC(=O)c2csc(n2)-c2ccc(-c3nc(C4=NC(C(=O)N5CCCC5C(=O)NCCN(C(C)C)C(C)C)CO4)cs3)nc2-c2csc(n2)-c2csc(n2)C(C(O)c2ccccc2)NC(=O)CNC(=O)c2nc(sc2COC)C(C(C)C)NC(=O)c2nc1sc2C (mixture of isomers) [Compound 11],4,4,0.06,0.5,0.25,
CNC(=O)CC1NC(=O)c2csc(n2)-c2ccc(-c3nc(C4=NC(C(=O)N5CCCC5C(=O)NC(C)C(=O)N(C)CCN(C)C)CO4)cs3)nc2-c2csc(n2)-c2csc(n2)C(C(O)c2ccccc2)NC(=O)CNC(=O)c2nc(sc2COC)C(C(C)C)NC(=O)c2nc1sc2C (mixture of isomers) [Compound 14],2,4,0.13,0.25,0.13,
CNC(=O)CC1NC(=O)c2csc(n2)-c2ccc(-c3nc(C4=NC(C(=O)N5CCCC5C(=O)N(C)CCN5CCN(CCO)CC5)CO4)cs3)nc2-c2csc(n2)-c2csc(n2)C(C(O)c2ccccc2)NC(=O)CNC(=O)c2nc(sc2COC)C(C(C)C)NC(=O)c2nc1sc2C (mixture of isomers) [Compound 18],8,8,0.06,2,0.5,
CNC(=O)CC1NC(=O)c2csc(n2)-c2ccc(-c3nc(C4=NC(C(=O)N5CCCC5C(=O)N5CCCC5CN(C)CCN(C)C)CO4)cs3)nc2-c2csc(n2)-c2csc(n2)C(C(O)c2ccccc2)NC(=O)CNC(=O)c2nc(sc2COC)C(C(C)C)NC(=O)c2nc1sc2C (mixture of isomers) [Compound 20],4,8,0.13,1,0.5,

# Next, values leading:
"MIC of the compounds, Streptococcus pyogenes L49 [1] [µg/mL]","MIC of the compounds, Strept. agalactiae L310 (Strept. agalactiae L310) [µg/mL]","MIC of the compounds, Staphylococcus aureus L165 [2] [µg/mL]","MIC of the compounds, Strept. sanguis L1721 (Strept. sanguis L1721) [µg/mL]","MIC of the compounds, Strept. pneumoniae L44 (Strept. pneumoniae L44) [µg/mL]","MIC of the compounds, Haemoph. influenzae ATCC 19418 L970 [3] [µg/mL]",SMILES
4,4,0.06,0.5,0.25,,CNC(=O)CC1NC(=O)c2csc(n2)-c2ccc(-c3nc(C4=NC(C(=O)N5CCCC5C(=O)NCCCN(C)C)CO4)cs3)nc2-c2csc(n2)-c2csc(n2)C(C(O)c2ccccc2)NC(=O)CNC(=O)c2nc(sc2COC)C(C(C)C)NC(=O)c2nc1sc2C (mixture of isomers) [Compound 4]
1,,0.06,0.25,0.25,128,CNC(=O)CC1NC(=O)c2csc(n2)-c2ccc(-c3nc(C4=NC(C(=O)N5CCCC5C(=O)N(C)CCN(C)C)CO4)cs3)nc2-c2csc(n2)-c2csc(n2)C(C(O)c2ccccc2)NC(=O)CNC(=O)c2nc(sc2COC)C(C(C)C)NC(=O)c2nc1sc2C (mixture of isomers) [Compound 5]
4,8,0.13,1,0.5,,CNC(=O)CC1NC(=O)c2csc(n2)-c2ccc(-c3nc(C4=NC(C(=O)N5CCCC5C(=O)N(C)CC(=O)N(C)CCN(C)C)CO4)cs3)nc2-c2csc(n2)-c2csc(n2)C(C(O)c2ccccc2)NC(=O)CNC(=O)c2nc(sc2COC)C(C(C)C)NC(=O)c2nc1sc2C (mixture of isomers) [Compound 13]
8,16,0.06,2,1,,CNC(=O)CC1NC(=O)c2csc(n2)-c2ccc(-c3nc(C4=NC(C(=O)N5CCCC5C(=O)N(C)CCN(C)CCN(C)C)CO4)cs3)nc2-c2csc(n2)-c2csc(n2)C(C(O)c2ccccc2)NC(=O)CNC(=O)c2nc(sc2COC)C(C(C)C)NC(=O)c2nc1sc2C (mixture of isomers) [Compound 15]
4,8,0.13,1,0.5,,CNC(=O)CC1NC(=O)c2csc(n2)-c2ccc(-c3nc(C4=NC(C(=O)N5CCCC5C(=O)N5CCN(CCCN(C)C)CC5)CO4)cs3)nc2-c2csc(n2)-c2csc(n2)C(C(O)c2ccccc2)NC(=O)CNC(=O)c2nc(sc2COC)C(C(C)C)NC(=O)c2nc1sc2C (mixture of isomers) [Compound 16]
4,8,0.06,0.5,0.5,,CNC(=O)CC1NC(=O)c2csc(n2)-c2ccc(-c3nc(C4=NC(C(=O)N5CCCC5C(=O)N(C)CCN5CCN(C)CC5)CO4)cs3)nc2-c2csc(n2)-c2csc(n2)C(C(O)c2ccccc2)NC(=O)CNC(=O)c2nc(sc2COC)C(C(C)C)NC(=O)c2nc1sc2C (mixture of isomers) [Compound 17]
0.5,16,0.06,2,0.25,,CNC(=O)CC1NC(=O)c2csc(n2)-c2ccc(-c3nc(C4=NC(C(=O)N5CCCC5C(=O)N5CCN(CCN6CCOCC6)CC5)CO4)cs3)nc2-c2csc(n2)-c2csc(n2)C(C(O)c2ccccc2)NC(=O)CNC(=O)c2nc(sc2COC)C(C(C)C)NC(=O)c2nc1sc2C (mixture of isomers) [Compound 19]
